The values that follow come from patent publication US8981179B2, “Transgenic non-human animal and uses thereof” (Sanofi, priority 2009, dated 2015).

pEC50: −log10 of the molar value.

Assay [1] has as its target T1, mGluR7 (Mus musculus, UniProt Q68ED2). Kind of assay: Whole brain slice luminescence, Gi agonist with isoproterenol. Type of assay: cell-based. On the set-up: from tissue; host or cells: hippocampal brain slices, CreLuc mouse line 187. To be noted: line 187, 1 uM AMN082 in combination with 1 uM ISO. Here is the method: Whole brain slices were used to show the effects of compounds on luminescence in CreLuc mice (FIG. 8A, 8B). In general, brains from CreLuc mice can be harvested and then either cut into slices on a microtome or various subregions can also be dissected out and then sliced on a microtome. The slices can then be incubated with different compounds such as forskolin and rolipram, or GPCR specific compounds. Luciferase levels can then be measured with an IVIS bioimager or a photomultiplier with a carousel to take quantitative timecourse measurements.
Brain slices from the hippocampal region of CreLuc mice (line #187) were incubated with 1 uM isoproterenol (Sigma, cat#5627) for 2 days. […] (FIG. 8A, bottom panel). Thus, isoproterenol was used to increase the luciferase signal window which allows for screening GPCR specific compounds such as Gi agonists. AMN082 (AMN, Tocris Bioscience, Cat. No. 2385) is an mGluR7 agonist and mGluR7 is a receptor that is coupled to Gi. When brain slices were treated with 1 uM ISO in combination with 1 uM AMN082, the luciferase signal was diminished in comparison to ISO treatment alone.

Assay [2] addresses T1, mGluR7. Briefly: Primary cortical neurons CreLuc luciferase assay, Gi modulation via mGluR7. The class given is cell-based. On the set-up: endogenous in cells; host or cells: primary cortical neurons, E18 embryos, CreLuc mouse line 187. An excerpt:
(§1) A general schematic of the workflow for the isolation and compound treatment of primary neuronal cells from the CreLuc model is depicted in FIG. 9. Cortices or other brain subregions are removed from embryos, usually embryonic (E) day 17 or 18, but also as early as E14. The individual neurons are then isolated and plated onto 96 well assay plates. Assays are run either in triplicate or quadruplicate. The assays are run from day 3 in culture up until day 7 or day 10 in culture depending on the expression levels of the target GPCR. Compounds are added to the plates then at a set timepoint, Bright Glo (Promega, Cat #E2610) is added to the plates and the assay is then run on a TopCount or other luminometer.
Primary cell cultures from the CreLuc mice may be used to screen compounds that are capable of modulating Gi coupled receptors. […] Cortical neurons were harvested from E18 embryos. The assay was run at day 3 in culture. Forskolin was used at 10 μM to give a larger signal window to be used to detect Gi activity. The mGluR7 agonist, AMN082 was used in combination with forskolin at 1 nM, 10 nM, 100 nM and 1 μM. The assay was read on a TopCount with Bright Glo (Promega) at 4 hours, and 8 hours. […] The CreLuc mice can be used to screen for compounds that modulate Gq coupled receptors.
However, to increase the signal window even wider, rolipram (blocks the breakdown of cAMP) was used in combination with forskolin. Primary cortical neurons were isolated from E18 embryos from line 187 which was previously determined to have inducible brain and spinal cord expression. The assay, in triplicates, was run at day 7 in culture for 6 hours. A dose curve, 10 μM down to 1 nM, for AMN082 was run in combination with 50 μM forskolin and 10 μM rolipram. The assay was read on a TopCount luminometer with Bright Glo substrate (Promega). […] All lines used were previously determined to have inducible luciferase expression levels in whole brain tissue extracts (data not shown). […] Bright Glo luciferase assay substrate was then added, and the assay read on a Topcount luminometer. […]

The target of assay [3] is T2, adrenoceptor beta3 (Adrb3) (Mus musculus, UniProt P25962).
T2 construct: from tissue; host or cells: whole animal; luciferase read in tissue homogenates (adipose tissue, lung and others) and by bioimaging
Kind of assay: Induction of luciferase by Adrb3 agonist in CRE-Luc mice (tissue homogenates, bioimaging). The class given is in vivo. To be noted: 1 mg/kg, ip. The procedure: The luciferase assay was performed in tissue homogenates.

The next assay has as its target T3, CB1 (Mus musculus, UniProt P47746).
T3 construct: endogenous in cells; host or cells: primary cortical neurons, E18, CreLuc mouse lines 69, 187, 175, 219
Briefly: Primary cortical neurons CreLuc luciferase assay, Gi modulation by CB1 agonist. The class given is cell-based. Here is the method:
However, to increase the signal window even wider, rolipram (blocks the breakdown of cAMP) was used in combination with forskolin. Primary cortical neurons were isolated from E18 embryos from line 187 which was previously determined to have inducible brain and spinal cord expression. The assay, in triplicates, was run at day 7 in culture for 6 hours. A dose curve, 10 μM down to 1 nM, for AMN082 was run in combination with 50 μM forskolin and 10 μM rolipram. The assay was read on a TopCount luminometer with Bright Glo substrate (Promega). […] Gi modulation of luciferase expression in primary cortical neurons from different CreLuc lines by the CB1 agonist, CP 55,940 was performed in the presence of forskolin and rolipram (FIG. 15). Primary cortical neurons were harvested from lines 69, 187, 175 and 219 at E18. All lines used were previously determined to have inducible luciferase expression levels in whole brain tissue extracts (data not shown). The assays were run on day three in culture. The CB1 agonist was used at 10 μM, forskolin at 5 μM and rolipram at 10 μM. […] Bright Glo luciferase assay substrate was then added, and the assay read on a Topcount luminometer. […]
Gi modulation of luciferase in primary cortical neurons from CreLuc mice by the CB1 agonist, CP 55,940 was in a dose-dependent manner (FIG. 15B). […] The assay was read on a TopCount with BrightGlo (Promega) at 8 hours.

The next assay relates to plasma cAMP. To be noted: Balb/c mice, 10 mg/kg, blood harvested after 20 minutes; cited from earlier work.
Assay [4] deals with T4, D1 dopamine receptors (DRD1) (Mus musculus, UniProt Q61616).
T4 construct: Neurons were isolated from the cortices of line 187 E18 embryos; endogenous in cells; host or cells: primary cortical neurons (E18) and striatal neurons (E14), CreLuc mouse line 187
Kind of assay: Primary cortical neurons CreLuc luciferase assay, Gs modulation via DRD1. Type of assay: cell-based. To be noted: 4 hours.
Text: as §1
The assay was run in triplicates on day three in culture. Forskolin was used at 5 μM, rolipram at 10 μM and the Gs agonists, ADβR-isoproterenol; and Dopamine-SKF82958 (MFG, Cat #C130) at 10 μM. At 4 hours, Bright Glo was added and the assays run on a Topcount. Forskolin is a general activator of cAMP.

The nature of assay [5]: Blood glucose in unfasted CRE-luc mice. Type of assay: in vivo, mouse. To be noted: line 11, AVE0010 0.1 mg/kg, sc. The procedure: The induction of CRE-Luc by AVE0010 is likely beta-cell-specific (FIG. 31). Animals were treated as described in FIG. 30. Blood glucose levels were measured by tail vein nicking on unfasted mice. Glucose levels were read on a Bayer glucometer. Glucose levels are shown as mg glucose/[…]. Fold induction is the luciferase bioimaging levels of AVE10 dosing versus the baseline signals. Blood glucose levels (BG) were increased by STZ (upper left panel). Non-fasting BG levels were reduced by AVE0010 (0.1 mg/kg, sc).

Assay [6] addresses T5, glucagon-like peptide 1 receptor (GLP-1R) (Mus musculus, UniProt O35659).
T5 construct: from tissue; host or cells: whole animal; bioimaging and tissue homogenates, signal in the pancreas
T5 sequence (O35659 22-463): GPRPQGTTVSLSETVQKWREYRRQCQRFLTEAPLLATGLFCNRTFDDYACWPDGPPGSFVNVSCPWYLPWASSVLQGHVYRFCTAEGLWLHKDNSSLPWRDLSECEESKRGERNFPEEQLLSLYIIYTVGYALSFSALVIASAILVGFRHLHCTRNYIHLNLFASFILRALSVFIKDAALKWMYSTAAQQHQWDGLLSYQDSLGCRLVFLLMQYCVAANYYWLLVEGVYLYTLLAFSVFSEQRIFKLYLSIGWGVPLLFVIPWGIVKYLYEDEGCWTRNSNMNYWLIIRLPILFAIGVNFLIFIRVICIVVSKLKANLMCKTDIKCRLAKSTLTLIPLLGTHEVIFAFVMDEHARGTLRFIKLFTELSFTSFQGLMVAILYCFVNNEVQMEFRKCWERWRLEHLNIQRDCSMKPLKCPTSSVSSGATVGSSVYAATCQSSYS
Kind of assay: Induction of luciferase reporter by GLP-1R agonist in CRE-Luc mice (bioimaging, tissue homogenates). Type of assay: in vivo. The procedure: Transgene activation co-localizes with tissue specific receptor activation as exemplified by the induction of luciferase reporter by the glucagon-like peptide 1 receptor (GLP-1R) agonist, AVE0010, which was studied in three independent lines of CRE-Luc mice (FIG. 28). The GLP-1R is Gs coupled. Baseline images were acquired on day 1. On day 2, mice were treated with AVE0010 (0.1 mg/kg, sc) and imaged after 4 hours. Folds of induction over baseline were indicated at the bottom. […] Luciferase activities in 8 different tissues were measured for lines 11, 16 and 90 (FIG. 29) following treatment with AVE0010 (0.1 mg/kg, s.c.) for 4 hours. […] The activity of AVE0010 is limited to the pancreas even though GLP-1R is found in different tissue types.
The induction of Cre-Luc by AVE0010 is likely beta-cell mediated. The effects of the beta-cell toxin streptozotocin (STZ) on the induction of CRE-Luc by AVE0010 was investigated (FIG. 30). Male CRE-luc mice were imaged before and after AVE0010 (0.1 mg/kg, sc) treatment. […] Then, the animals were treated with vehicle or STZ (200 mpk, ip). Four days later, they were imaged again after AVE0010 treatment.

T1 sequence (Q68ED2 35-915): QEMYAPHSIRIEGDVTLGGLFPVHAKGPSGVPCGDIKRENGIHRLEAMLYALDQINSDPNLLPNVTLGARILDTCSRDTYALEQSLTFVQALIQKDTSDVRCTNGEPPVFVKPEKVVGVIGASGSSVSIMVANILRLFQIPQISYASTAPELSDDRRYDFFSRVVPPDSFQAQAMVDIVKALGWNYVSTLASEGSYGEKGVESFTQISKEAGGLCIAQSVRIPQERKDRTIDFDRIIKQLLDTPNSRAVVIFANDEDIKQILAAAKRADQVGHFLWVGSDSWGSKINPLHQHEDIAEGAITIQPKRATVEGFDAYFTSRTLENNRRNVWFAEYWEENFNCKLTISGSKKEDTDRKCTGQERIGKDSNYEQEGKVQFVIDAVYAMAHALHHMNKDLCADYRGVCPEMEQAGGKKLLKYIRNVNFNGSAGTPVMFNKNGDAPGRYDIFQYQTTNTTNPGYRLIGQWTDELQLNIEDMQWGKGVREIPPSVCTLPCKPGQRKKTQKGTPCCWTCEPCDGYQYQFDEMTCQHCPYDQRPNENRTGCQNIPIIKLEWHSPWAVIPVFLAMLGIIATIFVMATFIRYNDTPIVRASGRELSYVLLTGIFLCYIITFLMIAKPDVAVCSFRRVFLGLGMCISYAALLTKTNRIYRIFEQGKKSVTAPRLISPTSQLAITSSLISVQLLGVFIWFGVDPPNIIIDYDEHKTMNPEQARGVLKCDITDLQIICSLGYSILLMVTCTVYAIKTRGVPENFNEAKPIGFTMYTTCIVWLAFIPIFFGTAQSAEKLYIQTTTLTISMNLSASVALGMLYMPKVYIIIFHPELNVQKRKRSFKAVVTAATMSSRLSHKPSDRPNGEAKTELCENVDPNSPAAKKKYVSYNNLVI
T4 sequence (Q61616 whole entry): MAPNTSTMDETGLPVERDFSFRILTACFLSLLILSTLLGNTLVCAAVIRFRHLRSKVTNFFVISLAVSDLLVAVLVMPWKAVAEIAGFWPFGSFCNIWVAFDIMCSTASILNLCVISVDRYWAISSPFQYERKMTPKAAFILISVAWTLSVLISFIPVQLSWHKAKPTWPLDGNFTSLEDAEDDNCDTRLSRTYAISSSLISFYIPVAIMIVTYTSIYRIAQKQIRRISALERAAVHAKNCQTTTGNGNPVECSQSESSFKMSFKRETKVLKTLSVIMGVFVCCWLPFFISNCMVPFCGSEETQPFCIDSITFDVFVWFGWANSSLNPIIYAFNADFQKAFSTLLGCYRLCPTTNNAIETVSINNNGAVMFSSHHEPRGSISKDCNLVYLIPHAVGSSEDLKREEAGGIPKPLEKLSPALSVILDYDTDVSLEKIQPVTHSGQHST
T2 sequence (P25962 whole entry): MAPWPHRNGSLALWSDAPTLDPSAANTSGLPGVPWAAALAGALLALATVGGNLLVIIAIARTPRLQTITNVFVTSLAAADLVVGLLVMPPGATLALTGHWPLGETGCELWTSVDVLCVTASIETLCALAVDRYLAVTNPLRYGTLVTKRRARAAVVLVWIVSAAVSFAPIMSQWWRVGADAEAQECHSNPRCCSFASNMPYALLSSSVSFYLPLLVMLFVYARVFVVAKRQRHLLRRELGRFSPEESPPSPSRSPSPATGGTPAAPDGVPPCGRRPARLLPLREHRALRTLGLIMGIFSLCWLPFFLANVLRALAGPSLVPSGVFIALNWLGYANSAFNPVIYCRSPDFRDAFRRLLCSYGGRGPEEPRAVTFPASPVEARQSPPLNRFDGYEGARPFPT
T3 sequence (P47746 whole entry): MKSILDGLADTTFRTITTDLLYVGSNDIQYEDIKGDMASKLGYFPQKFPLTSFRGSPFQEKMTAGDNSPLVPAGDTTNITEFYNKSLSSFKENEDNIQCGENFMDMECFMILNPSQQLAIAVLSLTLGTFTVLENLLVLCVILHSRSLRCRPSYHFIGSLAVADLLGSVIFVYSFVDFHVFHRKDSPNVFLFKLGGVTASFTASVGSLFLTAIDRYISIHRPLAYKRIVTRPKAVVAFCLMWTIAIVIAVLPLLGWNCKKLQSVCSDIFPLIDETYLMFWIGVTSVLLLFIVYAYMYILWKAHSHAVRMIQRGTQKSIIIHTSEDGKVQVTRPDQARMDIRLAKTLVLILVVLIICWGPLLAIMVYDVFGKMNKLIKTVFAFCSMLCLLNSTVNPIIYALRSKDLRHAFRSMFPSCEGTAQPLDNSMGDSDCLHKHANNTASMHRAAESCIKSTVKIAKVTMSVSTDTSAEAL

One may read the pEC50 as −log10 of the EC50, conventionally taken in molar units. As for `Cl.Cl.c1ccc(C(NCCNC(c2ccccc2)c2ccccc2)c2ccccc2)cc1` [AMN082], on mGluR7 [1], the “luciferase signal in brain slices in comparison to ISO treatment alone” value is recorded as “diminished”. Also, the “luciferase levels versus forskolin only” value on mGluR7 [2] (cortical neurons line 187, day 3, 10 μM forskolin, 100 nM and 1 μM AMN082, 4 hours and 8 hours) is recorded as “Significant decreases”. Moreover, the pEC50 at mGluR7 [2] (cortical neurons line 187, day 3, in combination with 10 μM forskolin, 4 hours, read-out: calculated EC50 (Gi modulation of luciferase)) is 6.76. At mGluR7 [2] (cortical neurons line 187, day 7, 6 hours, 50 μM forskolin and 10 μM rolipram, at 1 μM, 100 nM and 1 nM, p<0.0005), the “decreases in luciferase levels vs. forskolin and rolipram controls” value is given as 59-61%.

As to `C[C@H](Cc1ccc2c(c1)OC(C(=O)[O-])(C(=O)[O-])O2)NC[C@H](O)c1cccc(Cl)c1.[Na+].[Na+]` [CL316,243], the induction via bioimaging entry in assay [3] (4 lines, BLI 4-5 hours after treatment) is recorded as “visible induction”. Moreover, the “induction of luciferase in the adipose tissue and lung (tissue homogenates)” value in assay [3] (7 of 12 independent transgenic lines screened) is “greater than 10 fold”.

As to `CCCCCCC(C)(C)c1ccc([C@@H]2C[C@H](O)CC[C@H]2CCCO)c(O)c1` [CP 55,940], the “luciferase levels, agonist plus forskolin and rolipram versus forskolin and rolipram alone” value on CB1 (cortical neurons line 187, 10 μM, 1 μM and 100 nM, forskolin and rolipram 10 μM, 8 hours) is reported as “Significant decreases”. Moreover, the “luciferase signal with addition of CB1 agonist in different CreLuc lines” value at CB1 (lines 69, 187, 175 and 219, 10 μM with forskolin 5 μM and rolipram 10 μM, four and twenty-four hours) is “Decreased signals”.

With `COc1ccc(C2CNC(=O)NC2)cc1O[C@H]1C[C@@H]2CC[C@H]1C2` [CP-80,633], the “plasma cAMP levels” value in the assay with plasma cAMP is “significantly increase”.

For the molecule `C=CCN1CCc2c(cc(O)c(O)c2Cl)C(c2ccccc2)C1` (stereo not drawn) [SKF82958], the “induction of luciferase in combination with rolipram compared to rolipram alone” value in assay [4] (cortical neurons line 187, 10 μM with 10 μM rolipram) stood at 2 fold. For the same molecule, the “luciferase levels, agonist alone” value in assay [4] (cortical neurons line 187, day 3, 10 μM) is given as “did not significantly increase”.

For the molecule “AVE0010: glucagon-like peptide 1 receptor (GLP-1R) agonist”, in assay [5], the “non-fasting BG levels” value is given as “reduced”. Also, the “luciferase activity in tissue homogenates of 8 tissues” value in assay [6] (lines 11, 16 and 90, 0.1 mg/kg, s.c., 4 hours) was “pancreas-specific induction of luciferase”. For the same molecule, the “bioimaging response of mice before and after treatment” value in assay [6] (male line 11, 0.1 mg/kg, sc) is “responsive”. The “transgene activation in the pancreas (bioimaging)” value in assay [6] (three independent lines, 0.1 mg/kg, sc, imaged after 4 hours) is recorded as “strong induction”.
